Reference: patent US20250230155A1 (Vanderbilt University, priority 2021, published 2025)

Biological target: T1, human mAChR M4 (Homo sapiens, UniProt P08173)
T1 construct: expressed in transfected cells
T1 sequence (P08173 1-479): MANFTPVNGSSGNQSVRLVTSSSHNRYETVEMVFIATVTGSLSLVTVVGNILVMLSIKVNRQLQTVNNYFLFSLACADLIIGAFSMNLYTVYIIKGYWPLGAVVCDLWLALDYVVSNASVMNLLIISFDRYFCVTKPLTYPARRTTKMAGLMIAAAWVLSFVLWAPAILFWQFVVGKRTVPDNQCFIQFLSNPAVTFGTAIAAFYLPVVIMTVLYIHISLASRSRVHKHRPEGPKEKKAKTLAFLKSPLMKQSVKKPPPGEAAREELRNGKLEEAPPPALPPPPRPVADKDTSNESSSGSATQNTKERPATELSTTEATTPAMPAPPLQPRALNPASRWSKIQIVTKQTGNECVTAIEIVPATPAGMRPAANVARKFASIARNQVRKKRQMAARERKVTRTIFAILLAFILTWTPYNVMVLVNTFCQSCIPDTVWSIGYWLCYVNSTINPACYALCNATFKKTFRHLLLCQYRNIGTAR
Test: mAChR M4 cell-based functional assay (calcium mobilization, CHO-K1 hM4-Gqi5 cells)
Conditions: for Emax at 30 µM: CHO-K1, % ACh maximum at 30 μM, human M4; for EC50: positive allosteric modulator activity, increase in the EC20 acetylcholine response, CHO-K1 hM4-Gqi5 cells, read-out: Human M4 EC50; for Emax: CHO-K1
Method in brief: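 Fluorescent calcium read-out (Fluo-4 AM, FDSS, 1 Hz) in hM4-Gqi5 CHO-K1 cells, 11-point 1:3 compound series. Agonism scored on compound addition, PAM activity as increase of the 144 s EC20 acetylcholine response, antagonism as decrease of the 230 s EC80 response; four-parameter logistic fits give EC50 and Emax.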

## Cc1nc(NC2CC2)nc(N2CCc3ncc(Nc4ccnn4C)cc3C2)c1C [compound 278, 6-(2-(cyclopropylamino)-5,6-dimethylpyrimidin-4-yl)-N-(1-methyl-1H-pyrazol-5-yl)-5,6,7,8-tetrahydro-1,6-naphthyridin-3-amine]
  Emax at 30 µM: 95%
  EC50: 178 nM

## Cc1cnc2c(c1)CN(c1nnc(C(=O)Nc3ccncc3)c(C)c1C)CC2 [Example 469, 4,5-dimethyl-6-(3-methyl-7,8-dihydro-1,6-naphthyridin-6(5H)-yl)-N-(pyridin-4-yl)pyridazine-3-carboxamide]
  Emax at 30 µM: 98%
  EC50: 114 nM

## Cc1nc(NC2CCOC2)nc(N2CCc3ncc(Nc4ccnn4C)cc3C2)c1C (centres unmarked) [compound 279, 6-(5,6-dimethyl-2-((tetrahydrofuran-3-yl)amino)pyrimidin-4-yl)-N-(1-methyl-1H-pyrazol-5-yl)-5,6,7,8-tetrahydro-1,6-naphthyridin-3-amine]
  Emax at 30 µM: 103%
  EC50: 191 nM

## Cc1cnc2c(c1)CN(c1nc(C)nc(Cl)c1C)CC2 [compound 209, 6-(6-chloro-2,5-dimethyl-pyrimidin-4-yl)-3-methyl-7,8-dihydro-5H-1,6-naphthyridine]
  Emax: 95%
  EC50: 170 nM

## Cc1cc(C#N)cnc1N1CCc2ncc(-c3ccc(N(C)C)nc3)cc2C1 [Example 318, 6-(3-(6-(dimethylamino)pyridin-3-yl)-7,8-dihydro-1,6-naphthyridin-6(5H)-yl)-5-methylnicotinonitrile]
  Emax at 30 µM: 74%
  EC50: 470 nM

## Cc1c(C#N)nnc(N2CCc3ncc(-c4cnc(Cl)c(F)c4)cc3C2)c1C [compound 51, 6-[3-(6-chloro-5-fluoro-3-pyridyl)-7,8-dihydro-5H-1,6-naphthyridin-6-yl]-4,5-dimethyl-pyridazine-3-carbonitrile]
  Emax at 30 µM: 61%
  EC50: 778 nM

## Cc1cc(C#N)nnc1N1CCc2ncc(-c3ccnn3C)cc2C1 [Example 394, 5-methyl-6-(3-(1-methyl-1H-pyrazol-5-yl)-7,8-dihydro-1,6-naphthyridin-6(5H)-yl)pyridazine-3-carbonitrile]
  Emax at 30 µM: 86%
  EC50: 1080 nM

## Cc1cc(C(=O)NCc2ccccn2)cnc1N1CCc2ncc(-c3cn(C)nc3C)cc2C1 [Example 458, 6-(3-(1,3-dimethyl-1H-pyrazol-4-yl)-7,8-dihydro-1,6-naphthyridin-6(5H)-yl)-5-methyl-N-(pyridin-2-ylmethyl)nicotinamide]
  Emax at 30 µM: 84%
  EC50: 562 nM

## [2H]C1([2H])Cc2ncc(-c3c(C)noc3C)cc2C([2H])([2H])N1c1nnc(C#N)cc1C [Example 621, 6-(3-(3,5-dimethylisoxazol-4-yl)-7,8-dihydro-1,6-naphthyridin-6(5H)-yl-5,5,7,7-d4)-5-methylpyridazine-3-carbonitrile]
  Emax at 30 µM: 85%
  EC50: 318 nM

## Cc1nc(Cl)c(C)c(N2CCc3ncc(N)cc3C2)n1 [compound 213, 6-(6-chloro-2,5-dimethylpyrimidin-4-yl)-5,6,7,8-tetrahydro-1,6-naphthyridin-3-amine]
  Emax: 94%
  EC50: 1890 nM

## Cc1cc(C(=O)NCc2ccncc2)nnc1N1CCc2ncc(N3CCCn4nccc43)cc2C1 [Example 490, 6-(3-(6,7-dihydropyrazolo[1,5-a]pyrimidin-4(5H)-yl)-7,8-dihydro-1,6-naphthyridin-6(5H)-yl)-5-methyl-N-(pyridin-4-ylmethyl)pyridazine-3-carboxamide]
  Emax at 30 µM: 100%
  EC50: 16 nM

## Cc1nc(Cl)c(C)c(N2Cc3cc(-c4cn(C)nc4C)cnc3C(C)(C)C2)n1 [compound 238, 6-(6-chloro-2,5-dimethylpyrimidin-4-yl)-3-(1,3-dimethyl-1H-pyrazol-4-yl)-8,8-dimethyl-5,6,7,8-tetrahydro-1,6-naphthyridine]
  Emax at 30 µM: 36%
  EC50: 819 nM

## Cc1cc(C(=O)N2CC(C)(F)C2)nnc1N1CCc2ncc(-c3ccnn3C)cc2C1 [Example 564, (3-fluoro-3-methylazetidin-1-yl)(5-methyl-6-(3-(1-methyl-1H-pyrazol-5-yl)-7,8-dihydro-1,6-naphthyridin-6(5H)-yl)pyridazin-3-yl)methanone]
  Emax at 30 µM: 72%
  EC50: 86 nM

## Cc1c(Cl)nc(C(F)(F)F)nc1N1CCc2ncc(-c3ccc(N(C)C)nc3)cc2C1 [compound 246, 5-(6-(6-chloro-5-methyl-2-(trifluoromethyl)pyrimidin-4-yl)-5,6,7,8-tetrahydro-1,6-naphthyridin-3-yl)-N,N-dimethylpyridin-2-amine]
  Emax at 30 µM: 19%
  EC50: 8390 nM

## Cc1c(C#N)nnc(N2CCc3ncc(-c4cc(F)cnc4Cl)cc3C2)c1C [compound 53, 6-[3-(2-chloro-5-fluoro-3-pyridyl)-7,8-dihydro-5H-1,6-naphthyridin-6-yl]-4,5-dimethyl-pyridazine-3-carbonitrile]
  Emax at 30 µM: 70%
  EC50: 479 nM

## Cc1cc(C(=O)N2CC3CC3C2)nnc1N1CCc2ncc(C(F)(F)F)cc2C1 (centres unmarked) [Example 504, (3-azabicyclo[3.1.0]hexan-3-yl)(5-methyl-6-(3-(trifluoromethyl)-7,8-dihydro-1,6-naphthyridin-6(5H)-yl)pyridazin-3-yl)methanone]
  Emax at 30 µM: 101%
  EC50: 3870 nM

## Cc1cc(C(=O)NCc2ccc3c(c2)COC3)cnc1N1CCc2ncccc2C1 [compound 153, N-(1,3-dihydroisobenzofuran-5-ylmethyl)-6-(7,8-dihydro-5H-1,6-naphthyridin-6-yl)-5-methyl-pyridine-3-carboxamide]
  Emax at 30 µM: 68%
  EC50: 3170 nM

## Cc1cc(C(=O)NC23CC(F)(C2)C3)cnc1N1CCc2ncccc2C1 [compound 124, 6-(7,8-dihydro-5H-1,6-naphthyridin-6-yl)-N-(3-fluoro-1-bicyclo[1.1.1]pentanyl)-5-methyl-pyridine-3-carboxamide]
  Emax at 30 µM: 78%
  EC50: 2170 nM

## Cc1cc(C(=O)NCC2CCCCO2)cnc1N1CCc2ncccc2C1 (centres unmarked) [compound 161, 6-(7,8-dihydro-5H-1,6-naphthyridin-6-yl)-5-methyl-N-(tetrahydropyran-2-ylmethyl)pyridine-3-carboxamide]
  Emax at 30 µM: 58%
  EC50: ≥ 10000 nM

## Cc1cc(C#N)cnc1N1CCc2ncc(Nc3ncccc3F)cc2C1 [compound 167, 6-[3-[(3-fluoro-2-pyridyl)amino]-7,8-dihydro-5H-1,6-naphthyridin-6-yl]-5-methyl-pyridine-3-carbonitrile]
  Emax at 30 µM: 91%
  EC50: 265 nM

## Cc1c(C#N)nnc(N2CCc3ncc(Nc4ccccc4C(F)(F)F)cc3C2)c1C [compound 43, 4,5-dimethyl-6-[3-[2-(trifluoromethyl)anilino]-7,8-dihydro-5H-1,6-naphthyridin-6-yl]pyridazine-3-carbonitrile]
  Emax at 30 µM: 71%
  EC50: 1160 nM

## Cc1c(C(=O)NCc2ccncc2)nnc(N2CCc3ncc(Nc4ccccc4F)cc3C2)c1C [compound 190, 6-[3-(2-fluoroanilino)-7,8-dihydro-5H-1,6-naphthyridin-6-yl]-4,5-dimethyl-N-(4-pyridylmethyl)pyridazine-3-carboxamide]
  Emax at 30 µM: 105%
  EC50: 136 nM

## Cc1cc(C#N)nnc1N1CCc2ncc(-c3c(C)noc3C)cc2C1 [Example 401, 6-(3-(3,5-dimethylisoxazol-4-yl)-7,8-dihydro-1,6-naphthyridin-6(5H)-yl)-5-methylpyridazine-3-carbonitrile]
  Emax at 30 µM: 76%
  EC50: 522 nM

## Cc1cc(F)ncc1-c1cnc2c(c1)CN(c1ncc(C(=O)NCc3nccs3)cc1C)CC2 [compound 174, 6-[3-(6-fluoro-4-methyl-3-pyridyl)-7,8-dihydro-5H-1,6-naphthyridin-6-yl]-5-methyl-N-(thiazol-2-ylmethyl)pyridine-3-carboxamide]
  Emax at 30 µM: 98%
  EC50: 75.8 nM

## Cc1cc(C(=O)NCc2cncs2)cnc1N1CCc2ncc(Nc3ccnn3C)cc2C1 [Example 449, 5-methyl-6-(3-((1-methyl-1H-pyrazol-5-yl)amino)-7,8-dihydro-1,6-naphthyridin-6(5H)-yl)-N-(thiazol-5-ylmethyl)nicotinamide]
  Emax at 30 µM: 105%
  EC50: 84 nM

## Cc1nc(N2CCCC2)nc(N2CCc3ncc(Nc4ccnn4C)cc3C2)c1C [compound 277, 6-(5,6-dimethyl-2-(pyrrolidin-1-yl)pyrimidin-4-yl)-N-(1-methyl-1H-pyrazol-5-yl)-5,6,7,8-tetrahydro-1,6-naphthyridin-3-amine]
  Emax at 30 µM: 98%
  EC50: 92 nM

## Cc1cnccc1CNC(=O)c1cnc(N2CCc3ncc(-c4cn(C)nc4C)cc3C2)c(C)c1 [Example 451, 6-(3-(1,3-dimethyl-1/-pyrazol-4-yl)-7,8-dihydro-1,6-naphthyridin-6(5H)-yl)-5-methyl-N-((3-methylpyridin-4-yl)methyl)nicotinamide]
  Emax at 30 µM: 92%
  EC50: 150 nM

## [2H]C([2H])([2H])c1cnc2c(c1)CN(c1nnc(C(=O)N3CCCC3)cc1C)CC2 [Example 578, (5-methyl-6-(3-(methyl-d3)-7,8-dihydro-1,6-naphthyridin-6(5H)-yl)pyridazin-3-yl)(pyrrolidin-1-yl)methanone]
  Emax at 30 µM: 105%
  EC50: 2440 nM
